Assay [1] relates to PKCε translocation in cultured DRG neurons. Briefly: PKCε translocation to the plasma membrane in cultured DRG neurons (immunocytochemistry, 50 cells per culture counted). The format is cell-based, rat. The note with it: for PKCε translocating cells after inhibitor pretreatment and CPTOMe stimulation: 15 min pretreatment (U73122/U73343 10 μM, 1-/2-butanol 50 mM), then CPTOMe 10 μM 90 s. How it is done: Cultures of dissociated dorsal root ganglia were prepared from male Sprague-Dawley rats (200-300 g, Charles River, Hollister, Calif., USA), adapting a previously described protocol (Khasar et al., 1999b). Rats were anesthetized with an overdose of Nembutal (50 mg per animal, s.c.). L1-L6 DRGs were removed, desheathed, pooled, incubated with collagenase (final concentration (f.c.) 0.125%, 1 h, 37° C.) followed by a trypsin digest (f.c. 0.25%, 7 min, 37° C.). Cells were separated by trituration with a fire polished Pasteur pipette. Axon stumps and dead cells were removed by straining (40 μm mesh), followed by centrifugation (3 min, 500 g). Cells were resuspended in 12 ml Neurobasal A/B27-media and plated 0.5 ml (=0.5 DRG equivalents) per culture onto polyornithine/laminin precoated glass cover slips (12 mm diameter) and incubated over night in 24-well plates at 37° C. in 5% CO2. Variability between batches of NeurobasalA media and its B27 supplement resulting in varying translocation of PKCε after stimulation was counteracted by the addition of up to […] ethanol (according to technical support of Invitrogen, less than 2.5% of the ethanol concentration already in the medium).
After a 15-20 h incubation, to allow cells to adhere to coverslips, the cells were stimulated. To ensure homogeneous dispersion of the stimulants, 250 μl of the 500 μl medium was removed, mixed thoroughly with the respective activator/inhibitor and added back to the same culture. […] Activators were added for the indicated time in concentrations based on literature reports. For all agonists time courses were established (some data not shown). Negative controls (unstimulated cells) were treated alike only without the addition of any pharmaceutical reagent. While the physiological stimulus epinephrine was used for the in vivo experiments, the β-AR agonist isoproterenol was used in vitro for identification of the β-AR subtype. After treatment the cells were washed once with phosphate buffered saline (PBS) and fixed with para-formaldehyde (PFA) (4%, 10 min, room temperature (RT)).
PFA-fixed cells were permeabilized with 0.1% Triton X-100 (10 min, RT), followed by three washes with 0.1% bovine serum albumin (BSA)/PBS (5 min, RT). After blockage of unspecific binding sites (5% BSA/10% normal goat serum/PBS, 1 h, RT) the cultures were probed with the respective primary antibody in 1% BSA/PBS (over night, 4° C.), washed three times (1% BSA/PBS, 5 min, RT) and incubated with the secondary fluorophore-coupled antiserum (final concentration (f.c.) 1:200, 1 h, RT). After three final washes (PBS, 5 min, RT), the cultures were mounted with Vectashield onto microscope slides and sealed with nail polish.
Cells were evaluated with a Nikon Microphot FXA microscope, using a 50× oil objective. 50 randomly selected cells per culture were evaluated. Data are plotted as mean percentage of translocating cells per evaluated culture±standard error of means (SEM) based on the number of evaluated cultures. All counting was done in blind fashion by the same observer. All treatments have been repeated with DRG-neurons from different rats, on at least 2 separate days. Confocal images were taken with a 100× oil immersion objective using a Zeiss Axiovert 100 microscope (Carl Zeiss Inc.) attached to a MRC 1000 confocal microscope (Bio-Rad). Epifluorescent images were taken with a 63× oil immersion objective using a Zeiss Axiovert 100 microscope.

In assay [2] the test system is Sprague-Dawley rats. Briefly: Mechanical nociceptive threshold, Randall-Selitto paw pressure test after intradermal injection. The format is in vivo, rat. The note with it: for reduction of paw-withdrawal threshold: agent alone, intradermal (epinephrine 0.1 μg, CPTOMe 6.3 μg in 2.5 μl), measured 30 min after injection; for change of baseline mechanical sensitivity (paw-withdrawal threshold): inhibitor alone, without stimulation (U73122/U73343 2.5 μl 1 μg/μl, 1-/2-butanol 2.5 μl); for CPTOMe-induced hyperalgesia after inhibitor preinjection: inhibitor preinjected 30 min before CPTOMe, positive = hyperalgesia; for effect on epinephrine-induced mechanical hyperalgesia: preinjection 30 min before epinephrine (also stated for CPTOMe). How it is done:
Behavioral experiments were performed on male Sprague-Dawley rats (200-300 g, Charles River, Hollister, Calif., USA). Animals were housed in a controlled environment in the Animal Care Facility of the University of California, San Francisco, under a 12 h light/dark cycle. Food and water were available ad libitum. Care and use of animals conformed to NIH guidelines. The UCSF Committee on Animal Research approved experimental protocols. All efforts were made to minimize the number of animals used. The nociceptive flexion reflex was quantified using the Randall-Selitto paw pressure device (Analgesymeter®, Stoetling), which applies a linearly increasing mechanical force to the dorsum of the rat's hind paw. The nociceptive mechanical threshold was defined as the force in grams at which the rat withdrew its paw. The protocols for this procedure have been previously described (Taiwo and Levine, 1989; Dina et al., 2003). Baseline paw-withdrawal threshold was defined as the mean of six readings before test agents were injected. Each paw was treated as an independent measure and each experiment was performed on a separate group of rats. Each group of rats was treated with only one agonist and/or antagonist injected peripherally by the intradermal route. Measurement of nociceptive threshold was taken 30 min after the administration of the hyperalgesic mediator. All behavioral testing was done between 10.00 and 16.00 h. The blocking agents were injected as described previously ([…] et al., 1995; […] et al., 1999a). […] […] et al., 1999a).

Setting [3] is: activator alone, 30 s stimulation (isoproterenol 1 μM, cholera toxin 1 μg/ml, forskolin 5 μM, CPTOMe 10 μM), mean±SEM.
Where [4] appears, read: 15 min pretreatment (ICI 118,551 50 μM, D-609 30 μM, U73122/U73343 10 μM, 1-/2-butanol 50 mM, BIM 100 nM), then isoproterenol 1 μM 30 s.

Where “and” joins values, the source holds several entries; their conditions need not be identical. Equal values may be shown once. Entries after “also recorded” stand apart in the source; their conditions may differ. Read-outs that look alike come from different tables or passages of the source.

`C=C[C@@]1(C)CC(=O)[C@]2(O)[C@@]3(C)[C@@H](O)CCC(C)(C)[C@@H]3[C@H](O)[C@H](OC(C)=O)[C@@]2(C)O1` [forskolin] registered a PKCε translocating cells in assay [1] (setting [3]) of 22.3±4.2%.

Take `CO[C@@H]1[C@@H]2OP(=O)(O)OC[C@H]2O[C@H]1n1c(Sc2ccc(Cl)cc2)nc2c(N)ncnc21` [CPTOMe, 8-CPT-2′-O-Me-cAMP]: the PKCε translocating cells in assay [1] is 20.3±2.6% and 23.5±3.7%. Also, the “time of maximal PKCε translocation” value in assay [1] (activator alone, time course) is listed as 90 s. Further, the CPTOMe-induced hyperalgesia in assay [2] (CPTOMe alone, comparator of the inhibitor experiment) was 31.7%±0.8%. In addition, the “reduction of paw-withdrawal threshold” value in assay [2] was found to be 34.6±1.6%.

Turning to `COc1ccc2c(c1)CC[C@@H]1[C@@H]2CC[C@]2(C)[C@@H](NCCCCCCN3C(=O)C=CC3=O)CC[C@@H]12` [U73122], the “PKCε translocating cells after inhibitor pretreatment and isoproterenol stimulation” value in assay [1] (setting [4]) amounted to 0.3±0.3%. Besides, in assay [1], the “PKCε translocating cells after inhibitor pretreatment and CPTOMe stimulation” value came out at 2.0±0.9%. In assay [2], the “change of baseline mechanical sensitivity (paw-withdrawal threshold)” value (shortened to “change”) is −4.4%±1.3%, the “CPTOMe-induced hyperalgesia after inhibitor preinjection” value is −2.5%±2.0% and the “effect on epinephrine-induced mechanical hyperalgesia” value is given as “completely blocked”.

Regarding `CCC(C)O` (stereo not shown) [2-butanol], the “PKCε translocating cells after inhibitor pretreatment and isoproterenol stimulation” value in assay [1] (setting [4]) worked out at 16.0±2.4%. Besides, the “PKCε translocating cells after inhibitor pretreatment and CPTOMe stimulation” value in assay [1] amounted to 21.8±2.7%. Also, in assay [2], the “change” value is −8%±1.7% and the “CPTOMe-induced hyperalgesia after inhibitor preinjection” value stood at 33.4±1.7%.

For the compound `CC(C)NC[C@H](O)c1ccc(O)c(O)c1` [isoproterenol, (−)-isoproterenol], the PKCε translocating cells in assay [1] (setting [3]) was 21.3%±2.8% and 19.0±3.0%. Also, the “time of maximal PKCε translocation” value in assay [1] (activator alone, time course) is given as “about 30 s”.

For the compound `Cc1ccc(OCC(O)C(C)NC(C)C)c2c1CCC2` (stereo not shown) [ICI 118,551], the “PKCε translocating cells after inhibitor pretreatment and isoproterenol stimulation” value in assay [1] (setting [4]) is listed as 3.0%±1.1%.

Regarding `CCCCO` [1-butanol], the “PKCε translocating cells after inhibitor pretreatment and isoproterenol stimulation” value in assay [1] (setting [4]) is reported as 5.5±1.1%. In addition, the “PKCε translocating cells after inhibitor pretreatment and CPTOMe stimulation” value in assay [1] worked out at 8.7±1.5%. In assay [2], the “change” value is −0.0%±1.8%, the “CPTOMe-induced hyperalgesia after inhibitor preinjection” value was −0.5%±1.8% and the “effect on epinephrine-induced mechanical hyperalgesia” value is “inhibits completely”.

Take `CNC[C@H](O)c1ccc(O)c(O)c1` [epinephrine]: in assay [2], the “reduction of paw-withdrawal threshold” value amounted to 37.7±1.9%.

With `CN(C)CCCn1cc(C2=C(c3c[nH]c4ccccc34)C(=O)NC2=O)c2ccccc21` [BIM, bisindolylmaleimide I], in assay [1], the “PKCε translocating cells after inhibitor pretreatment and isoproterenol stimulation” value worked out at 19.8±1.3%.

For the compound `S=C([S-])OC1CC2CC1C1CCCC21.[K+]` [D-609], the “PKCε translocating cells after inhibitor pretreatment and isoproterenol stimulation” value in assay [1] (setting [4]) is recorded as 20.8±2.9%.

As to `Cc1ncc2ccccc2c1C#N` [CMIQ, 4-cyano-3-methylisoquinoline], the “effect on isoproterenol-induced PKCε translocation” value in assay [1] (15 min preincubation, up to 1000-fold IC50 (0.03-30 μM), then isoproterenol 1 μM 30 s) is recorded as “still translocated to the plasma membrane, as in control conditions”. Also, the “effect on mechanical paw-withdrawal threshold” value in assay [2] (CMIQ alone 2.5 μg/2.5 μl intradermally) is “did not change”. Also, the “effect on PKA catalytic subunit-induced hyperalgesia” value in assay [2] (CMIQ preinjected 15 min before PKAcs) is listed as “completely abrogated; also recorded: completely blocked”.

Take cholera toxin: in assay [1], the PKCε translocating cells is 15.2±3.0% and 24.0±1.9%; the “time of maximal PKCε translocation” value is 90 s.

For `COc1ccc2c(c1)CC[C@@H]1[C@@H]2CC[C@]2(C)[C@@H](NCCCCCCN3C(=O)CCC3=O)CC[C@@H]12` [U73343], the “PKCε translocating cells after inhibitor pretreatment and isoproterenol stimulation” value in assay [1] (setting [4]) is 15.3±1.9%. In addition, in assay [1], the “PKCε translocating cells after inhibitor pretreatment and CPTOMe stimulation” value turned out to be 23.7±3.6%. Moreover, in assay [2], the “change” value is 2.8%±1.9% and the “CPTOMe-induced hyperalgesia after inhibitor preinjection” value is given as 30.9%±1.9%.

Values taken from patent US20070060548A1, “Modulation of Epac, phospholipase Cepsilon, and phospholipase D to treat pain” (The Regents of the University of California, priority 2005, published 2007).
